Assay results published in patent US9434724B2, “Quinuclidines for modulating alpha 7 activity” (priority 2014, dated 2016).
Where two headings read alike, the source gives them in different places.

How the values were obtained:
CYP3A4 = CYP3A4 (Homo sapiens (Human), UniProt P08684); assay: Cytochrome P450 inhibition in human liver microsomes, CYP3A4
[1] = Metabolic stability assay in human liver microsomes (HLM); format: in vitro ADME; conditions: 1 μM
Method in brief: (§1)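 In Protocol 1, compound was 1 μM final with NADPH at 37 °C, sampled at 0–45 min. In Protocol 2, 1.5 μM compound with 0.75 mg/mL microsomes (pre-NADPH mix) in 0.1 M potassium phosphate, 1 mM EDTA, pH 7.4 was pre-incubated 10 min, then NADPH started the reaction. Both: LC-MS/MS % remaining versus time 0, half-life from single-phase exponential fit.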

CYP2C9 = CYP2C9 (Homo sapiens (Human), UniProt P11712); assay: Cytochrome P450 inhibition in human liver microsomes, CYP2C9
Sequence of CYP2C9 (P11712 whole entry): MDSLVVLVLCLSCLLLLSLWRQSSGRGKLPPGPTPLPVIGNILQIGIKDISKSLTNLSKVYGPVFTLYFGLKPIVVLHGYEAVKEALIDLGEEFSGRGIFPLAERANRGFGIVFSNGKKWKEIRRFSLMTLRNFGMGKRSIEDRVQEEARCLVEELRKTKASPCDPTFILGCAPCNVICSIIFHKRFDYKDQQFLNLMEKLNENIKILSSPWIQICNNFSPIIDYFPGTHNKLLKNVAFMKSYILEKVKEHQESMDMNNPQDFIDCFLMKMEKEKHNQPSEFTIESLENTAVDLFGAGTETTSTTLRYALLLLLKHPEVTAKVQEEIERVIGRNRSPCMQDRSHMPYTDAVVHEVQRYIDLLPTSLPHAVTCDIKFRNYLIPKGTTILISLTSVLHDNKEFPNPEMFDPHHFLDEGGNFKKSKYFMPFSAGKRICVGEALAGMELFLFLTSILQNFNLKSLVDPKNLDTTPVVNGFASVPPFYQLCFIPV

Human plasma stability = format: in vitro ADME
Method in brief: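 Protocol 1: 1 μM compound in pH 7.4 sodium-heparin human plasma at 37° C, sampled 0–120 min. Protocol 2: 5 μM in plasma at pH 7.4–8.0, 37° C, duplicates, sampled 0–120 min. Both: LC-MS/MS percent remaining versus t0; half-life from single-phase exponential decay.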

CYP2C19 [2] = biological target: T1, CYP2C19 (Homo sapiens (Human), UniProt P33261); assay: Cytochrome P450 inhibition in human liver microsomes, CYP2C19
T1 sequence (P33261 whole entry): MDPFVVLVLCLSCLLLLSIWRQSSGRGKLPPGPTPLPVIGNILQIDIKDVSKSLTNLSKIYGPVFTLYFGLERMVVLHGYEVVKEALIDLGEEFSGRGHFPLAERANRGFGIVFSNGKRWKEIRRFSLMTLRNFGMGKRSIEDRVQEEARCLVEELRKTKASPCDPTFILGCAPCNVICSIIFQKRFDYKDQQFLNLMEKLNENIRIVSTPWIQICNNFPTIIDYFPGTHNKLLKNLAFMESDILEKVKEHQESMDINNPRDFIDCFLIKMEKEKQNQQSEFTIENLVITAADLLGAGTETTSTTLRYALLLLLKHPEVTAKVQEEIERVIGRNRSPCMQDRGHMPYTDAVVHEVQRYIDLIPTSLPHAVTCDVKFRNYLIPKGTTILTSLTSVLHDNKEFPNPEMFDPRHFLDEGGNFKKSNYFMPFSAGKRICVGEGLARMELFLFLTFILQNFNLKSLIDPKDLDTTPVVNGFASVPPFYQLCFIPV

CYP2D6 = CYP2D6 (Homo sapiens (Human), UniProt P10635); assay: Cytochrome P450 inhibition in human liver microsomes, CYP2D6
Sequence of CYP2D6 (P10635 whole entry): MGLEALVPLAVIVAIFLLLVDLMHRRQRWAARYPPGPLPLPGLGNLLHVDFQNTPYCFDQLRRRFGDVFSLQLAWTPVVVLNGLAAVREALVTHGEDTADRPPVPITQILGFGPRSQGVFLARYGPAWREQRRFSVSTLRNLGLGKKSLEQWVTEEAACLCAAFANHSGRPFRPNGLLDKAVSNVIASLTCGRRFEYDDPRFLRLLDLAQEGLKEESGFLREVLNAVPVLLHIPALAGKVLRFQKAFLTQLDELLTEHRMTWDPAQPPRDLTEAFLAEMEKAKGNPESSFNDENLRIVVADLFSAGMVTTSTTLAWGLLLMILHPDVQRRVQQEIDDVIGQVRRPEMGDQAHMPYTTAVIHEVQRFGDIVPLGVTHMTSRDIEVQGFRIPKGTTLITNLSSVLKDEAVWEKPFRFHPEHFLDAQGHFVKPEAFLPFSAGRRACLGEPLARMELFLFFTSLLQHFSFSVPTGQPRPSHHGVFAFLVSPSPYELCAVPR

[3] = biological target: rat brain nicotinic receptor (α7 NAChR) (Rattus norvegicus (Rat), UniProt Q05941); format: binding
Sequence of rat brain nicotinic receptor (α7 NAChR) (Q05941 23-502 limits assumed): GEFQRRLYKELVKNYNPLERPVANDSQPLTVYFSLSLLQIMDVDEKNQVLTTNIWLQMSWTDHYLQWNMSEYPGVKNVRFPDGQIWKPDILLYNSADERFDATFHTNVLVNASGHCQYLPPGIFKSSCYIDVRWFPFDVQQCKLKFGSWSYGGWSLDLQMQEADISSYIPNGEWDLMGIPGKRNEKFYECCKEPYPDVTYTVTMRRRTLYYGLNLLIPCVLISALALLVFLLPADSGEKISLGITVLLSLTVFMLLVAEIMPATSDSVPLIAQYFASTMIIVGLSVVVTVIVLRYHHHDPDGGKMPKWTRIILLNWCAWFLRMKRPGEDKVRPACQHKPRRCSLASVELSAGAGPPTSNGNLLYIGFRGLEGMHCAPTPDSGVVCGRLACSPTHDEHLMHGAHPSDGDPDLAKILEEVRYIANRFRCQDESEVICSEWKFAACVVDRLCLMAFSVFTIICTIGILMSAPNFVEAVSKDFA

CYP1A2 = CYP1A2 (Homo sapiens (Human), UniProt P05177); assay: Cytochrome P450 inhibition in human liver microsomes, CYP1A2
Sequence of CYP1A2 (P05177 whole entry): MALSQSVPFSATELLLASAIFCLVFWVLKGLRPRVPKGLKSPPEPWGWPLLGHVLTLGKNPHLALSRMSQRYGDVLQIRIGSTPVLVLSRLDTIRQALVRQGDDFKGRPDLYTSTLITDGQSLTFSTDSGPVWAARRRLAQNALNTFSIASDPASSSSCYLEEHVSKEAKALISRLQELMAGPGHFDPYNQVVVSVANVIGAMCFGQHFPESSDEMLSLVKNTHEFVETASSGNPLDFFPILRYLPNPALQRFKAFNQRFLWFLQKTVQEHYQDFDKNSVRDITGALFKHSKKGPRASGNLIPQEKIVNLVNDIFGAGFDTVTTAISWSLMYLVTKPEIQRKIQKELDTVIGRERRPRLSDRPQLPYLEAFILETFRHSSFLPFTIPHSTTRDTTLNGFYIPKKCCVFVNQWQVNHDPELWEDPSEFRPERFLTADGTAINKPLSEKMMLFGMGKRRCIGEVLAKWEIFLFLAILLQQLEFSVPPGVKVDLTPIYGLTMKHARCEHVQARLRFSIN

[4] = Metabolic stability assay in rat liver microsomes (RLM); format: in vitro ADME; conditions: 1 μM
Method in brief: as §1

CYP2C19 [5] = biological target: T1, CYP2C19; conditions: microsomes
[6] = read-out: 3A4 IC50 (Midazolam), substrate midazolam, Protocol 2
[7] = Protocol No. 2, human liver microsomes
[8] = pH 7.4, Protocol No. 1, human plasma, 1 μM, 37° C., read-out: T1/2
[9] = read-out: 2C19 IC50, Protocol 2
[10] = Protocol No. 2, rat liver microsomes
[11] = read-out: 3A4 IC50 (Midazolam), substrate midazolam, Protocol 1
[12] = read-out: 3A4 IC50 (Testosterone), substrate testosterone, Protocol 1
[13] = Protocol No. 1, human liver microsomes
[14] = Protocol No. 2, plasma, 5 μM, 37° C.
[15] = read-out: 2C19 IC50, Protocol 1
[16] = Protocol No. 1, rat liver microsomes

Sequence of CYP3A4 (P08684 whole entry): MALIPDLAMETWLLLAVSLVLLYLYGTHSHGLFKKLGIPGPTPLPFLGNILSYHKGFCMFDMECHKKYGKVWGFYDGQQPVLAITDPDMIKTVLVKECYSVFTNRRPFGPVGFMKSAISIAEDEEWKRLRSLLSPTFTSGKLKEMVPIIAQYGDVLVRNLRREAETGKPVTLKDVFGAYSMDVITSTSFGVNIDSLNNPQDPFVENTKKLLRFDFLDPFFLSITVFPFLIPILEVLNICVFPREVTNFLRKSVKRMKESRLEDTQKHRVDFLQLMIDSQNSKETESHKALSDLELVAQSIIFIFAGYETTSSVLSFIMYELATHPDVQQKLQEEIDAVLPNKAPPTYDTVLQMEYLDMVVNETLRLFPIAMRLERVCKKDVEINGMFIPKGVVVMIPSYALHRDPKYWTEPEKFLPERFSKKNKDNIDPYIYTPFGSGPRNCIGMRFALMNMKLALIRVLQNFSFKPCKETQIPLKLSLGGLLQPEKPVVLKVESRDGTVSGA

Structure (SMILES) | IC50 (CYP3A4; [6]) | HLM [1, 7] | IC50 (CYP2C9; read-out: 2C9 IC50, Protocol 2) | half-life at 1 μM (Human plasma stability; [8]) | IC50 (CYP2C19 [2]; [9]) | IC50 (CYP2D6; read-out: 2D6 IC50, Protocol 2) | IC50 [3] | Ki [3] | IC50 (CYP1A2; read-out: 1A2 IC50, Protocol 2) | RLM [4, 10] | IC50 (CYP3A4; [11]) | IC50 (CYP3A4; [12]) | IC50 (CYP1A2; read-out: 1A2 IC50, Protocol 1) | also measured
Cl.O=C(OCC12CCN(CC1)CC2)c1c[nH]c2cc3c(cc12)OCCO3 [Compound 30, Quinuclidin-4-ylmethyl 2,3-dihydro-6H-[1,4]dioxino[2,3-f]indole-8-carboxylate hydrochloride] | > 10 µM | <13.608 mL/min/kg | > 10 µM | 34.7 min | > 10 µM | > 10 µM | 0.0925 µM | 0.0811 µM | > 10 µM | 55.98 mL/min/kg |  |  |  | % Remaining @ 2 h (Human plasma stability; Protocol No. 1, human plasma, 1 μM, 37° C.): 10%
Cl.O=C(OCC12CCN(CC1)CC2)c1c[nH]c2cc(OC(F)F)ccc12 [Compound 31, Quinuclidin-4-ylmethyl 6-(difluoromethoxy)-1H-indole-3-carboxylate hydrochloride] | > 10 µM | <13.608 mL/min/kg | > 10 µM |  | > 10 µM | > 10 µM | 0.788 µM | 0.689 µM | > 10 µM | 25.92 mL/min/kg |  |  |  | 
COc1cc2[nH]cc(C(=O)OCC34CCN(CC3)CC4)c2cc1F.Cl [Compound 32, Quinuclidin-4-ylmethyl 5-fluoro-6-methoxy-1H-indole-3-carboxylate hydrochloride] | > 10 µM | <13.608 mL/min/kg | > 10 µM | > 120 min | > 10 µM | > 10 µM | 0.306 µM | 0.267 µM | > 10 µM | 85.5 mL/min/kg |  |  |  | 
COc1cc(F)c2c(C(=O)OCC34CCN(CC3)CC4)c[nH]c2c1.Cl [Compound 33, Quinuclidin-4-ylmethyl 4-fluoro-6-methoxy-1H-indole-3-carboxylate hydrochloride] | > 10 µM | <13.608 mL/min/kg | > 10 µM | 17.6 min | > 10 µM | > 10 µM | 0.0496 µM | 0.0432 µM | > 10 µM | 47.7 mL/min/kg |  |  |  | 
O=C(OCC12CCN(CC1)CC2)c1c[nH]c2cccc(Cl)c12 [Compound 35, quinuclidin-4-ylmethyl 4-chloro-1H-indole-3-carboxylate] |  |  |  |  |  |  | 0.0266 µM | 0.023 µM | > 10 µM |  |  |  |  | HLM ([1]; human, microsomes, pH 7.4): <13.608 mL/min/kg; % Remaining @ 2 h (Human plasma stability; human, plasma, 2 h, 1 μM, pH 7.4): 56%; half-life at 1 μM (Human plasma stability; human, plasma, pH 7.4): > 120 min; IC50 (CYP2C19 [5]): > 10 µM; RLM ([4]; rat, microsomes, pH 7.4): 183.6 mL/min/kg
COc1ccc2[nH]cc(C(=O)OCC34CCN(CC3)CC4)c2c1Cl [Compound 39, quinuclidin-4-ylmethyl 4-chloro-5-methoxy-1H-indole-3-carboxylate] |  |  |  |  |  |  | 0.0239 µM | 0.0206 µM |  |  | > 10 µM | > 10 µM | > 10 µM | HLM ([1]; human, microsomes): 9.18 mL/min/kg; % Remaining @ 2 h (Human plasma stability; human, plasma, 2 h, 5 μM): 14.05%; IC50 (CYP2C19 [5]; 45 min): > 10 µM; RLM ([4]; rat, microsomes): 262.35 mL/min/kg
COc1ccc2[nH]cc(C(=O)OCC34CCN(CC3)CC4)c2c1OC [Compound 40, quinuclidin-4-ylmethyl 4,5-dimethoxy-1H-indole-3-carboxylate] |  |  |  |  |  |  | 0.0696 µM | 0.06 µM |  |  | > 10 µM | > 10 µM | > 10 µM | HLM ([1]; human, microsomes): 7.67 mL/min/kg; T1/2 (Human plasma stability; human, plasma): ∞; % Remaining @ 2 h (Human plasma stability; human, plasma, 2 h, 5 μM): 106.8%; IC50 (CYP2C19 [5]; 45 min): > 10 µM; RLM ([4]; rat, microsomes): 49.42 mL/min/kg
Cc1ccc2c(C(=O)OCC34CCN(CC3)CC4)c[nH]c2c1.Cl [Compound 45, Quinuclidin-4-ylmethyl 6-methyl-1H-indole-3-carboxylate hydrochloride] |  |  |  |  |  |  | 0.0736 µM | 0.0631 µM |  |  | > 10 µM | > 10 µM | > 10 µM | HLM [1, 13]: 2.976 mL/min/kg; IC50 (CYP2C9; read-out: 2C9 IC50, Protocol 1): > 10 µM; % Remaining @ 2 h (Human plasma stability; [14]): 47.32%; IC50 (CYP2C19 [2]; [15]): > 10 µM; IC50 (CYP2D6; read-out: 2D6 IC50, Protocol 1): > 10 µM; RLM [4, 16]: 170.981 mL/min/kg
Cl.O=C(OCC12CCN(CC1)CC2)c1c[nH]c2cc(F)c(F)cc12 [Compound 51, Quinuclidin-4-ylmethyl 5,6-difluoro-1H-indole-3-carboxylate hydrochloride] |  |  |  |  |  |  | 0.662 µM | 0.568 µM |  |  | > 10 µM | > 10 µM | > 10 µM | HLM [1, 13]: 1.004 mL/min/kg; IC50 (CYP2C9; read-out: 2C9 IC50, Protocol 1): > 10 µM; % Remaining @ 2 h (Human plasma stability; [14]): 79.3649%; IC50 (CYP2C19 [2]; [15]): > 10 µM; IC50 (CYP2D6; read-out: 2D6 IC50, Protocol 1): > 10 µM; RLM [4, 16]: 716.882 mL/min/kg
